Results: patent US20250188113A1, “HIGH PURITY NON-ANIMAL DERIVED TUDCA” (SANDHILL ONE, LLC, priority 2021, published 2025)

Assays:
[1] = DVS mass change (moisture sorption); type: physicochemical
[2] = Crystallinity of Pattern L upon drying (XRPD); type: physicochemical; conditions: dried in a 50° C. oven under −29.5 in Hg for 3 h
Method: Pattern L was prepared by the slurry method. In this experiment, 205.4 mg of solid commercial-grade plant derived TUDCA was mixed with 2.2 mL of IPAc:MeOH (7.3:2.9 vol.) in a 4 mL vial at 50° C. The mixture was sonicated for 1 h and stirred for 15 min at 400 rpm, after which it was filtered and analyzed by XRPD. […] As this pattern was a possible hydrate, it was placed in a humidity chamber at 55% RH to see if the crystallinity would increase. The yield was 114.6 mg […].

| SMILES | DVS mass change 5-95% RH (wt. %) [1] [wt. %] | also measured |
| --- | --- | --- |
| CC(CCC(=O)NCCS(=O)(=O)O)C1CCC2C3C(O)CC4CC(O)CCC4(C)C3CCC12C.N=C(N)NCCCC(N)C(=O)O [Pattern 1-A (L-arginine), L-arginine TUDCA] | – | DVS mass change 2-80% RH (wt. %) ([1]; 2-80% RH): 2.91 wt. % |
| CC(C)NC(C)C.C[C@H](CCC(=O)O)[C@H]1CC[C@H]2[C@@H]3C(=O)C[C@@H]4CC(=O)CC[C@]4(C)[C@H]3CC[C@]12C [Diisopropylamine salt, diisopropylamine salt of 3,7-DKCA] | 2.53 | – |
| C[C@H](CCC(=O)NCCS(=O)(=O)O)[C@H]1CC[C@H]2[C@@H]3[C@@H](O)C[C@@H]4C[C@H](O)CC[C@]4(C)[C@H]3CC[C@]12C [Pattern A, Tauroursodeoxycholic acid] | – | DVS mass change 2-95% RH (wt. %) ([1]; 2-95% RH): 0.96 wt. % |
| CC(C)(C)N.C[C@H](CCC(=O)O)[C@H]1CC[C@H]2[C@@H]3C(=O)C[C@@H]4CC(=O)CC[C@]4(C)[C@H]3CC[C@]12C [tert-Butylamine salt, tert-butylamine salt of 3,7-DKCA] | 10.89 | – |
| C[C@H](CCC(=O)NCCS(=O)(=O)O)[C@H]1CC[C@H]2[C@@H]3[C@@H](O)C[C@@H]4C[C@H](O)CC[C@]4(C)[C@H]3CC[C@]12C [Pattern L, Tauroursodeoxycholic acid] | – | Crystallinity upon drying [2]: decrease |
| C[C@H](CCC(=O)O)[C@H]1CC[C@H]2[C@@H]3C(=O)C[C@@H]4CC(=O)CC[C@]4(C)[C@H]3CC[C@]12C.NCCN [Ethylenediamine salt, ethylenediamine salt of 3,7-DKCA] | 19.60 | – |
